# System: carbon-starved M. tuberculosis H37Rv
# Test: Non-replicating IC90 determination by luciferase (carbon-starved cells)
# Type: cell-based
# Details: Mycobacterium tuberculosis, H37RV; non-replicating carbon-starved Mtb, luciferase; three independent experiments in triplicate; read-out: TB Growth Inhibition Activity, IC90 Non-replicating_luciferase
row,SMILES,IC90 [µM]
1,c1ccc(CSc2ncc(-c3ccccc3)o2)cc1,62
2,CS(=O)(=O)c1cccc(-c2nnc(SCc3ccccc3)o2)c1,125
3,Fc1ccc(CSc2nnc(-c3ccccc3)o2)cc1 [drawing 136],1
4,c1ccc(CNc2nnc(-c3ccccc3)o2)cc1,4
5,c1ccc(CSc2nnc(-c3cnco3)o2)cc1,8
6,Cc1ccccc1-c1nnc(SCc2ccccc2)o1,16
7,Clc1cccc(-c2nnc(SCc3ccccc3)o2)c1,8
8,COc1ccc(-c2nnc(SCc3ccccc3)o2)cc1,31
9,Clc1ccc(CSc2nnc(-c3ccccc3)o2)cc1,1
10,FC(F)(F)c1ccc(CSc2nnc(-c3ccccc3)o2)cc1,1
11,FC(F)(F)Oc1ccc(CSc2nnc(-c3ccccc3)o2)cc1,1
12,FC(F)(F)Oc1ccc(-c2nnc(SCc3ccccc3)o2)cc1,2
13,CS(=O)(=O)c1ccc(CSc2nnc(-c3ccccc3)o2)cc1,31
14,c1ccc(-c2nnc(SCCN3CCCC3)o2)cc1,16
15,COc1ccccc1CSc1nnc(-c2ccccc2)o1,2
16,N#Cc1cccc(CSc2nnc(-c3ccccc3)o2)c1,8
17,FC(F)(F)CNCCSc1nnc(-c2ccccc2)o1,250
18,N#Cc1cccc(-c2nnc(SCc3ccccc3)o2)c1,8
19,c1ccc(CSc2nnc(-c3cc4ccccc4o3)o2)cc1,2
20,COc1ccc(CSc2nnc(-c3ccccc3)o2)cc1,0.25
21,c1ccc(COc2nnc(-c3ccccc3)o2)cc1,8

# Same assay, conditions: luciferase; None = inhibition did not reach 99%
row,SMILES,"Against carbon starved non-replicating Mtb IC99 (uM, luciferase)"
1,c1cncc(-c2nnc(SCCC3OCCCO3)o2)c1,None

# System: replicating M. tuberculosis H37Rv
# Test: microbe, parasite or virus in culture
# Type: cell-based
# Details: Mycobacterium tuberculosis, H37RV, None = inhibition did not reach 90%, read-out: Against Replicating Mtb IC90 (uM, GFP)
row,SMILES,IC90 [µM]
1,c1cncc(-c2nnc(SCCC3OCCCO3)o2)c1,> 500

# System: not listed separately
# Test: Cytotoxicity against Hek 293
# Type: cell-based
# Details: human, HEK293 cells, 26.0 uM highest concentration measured
row,SMILES,IC50 [µM]
1,CS(=O)(=O)c1ccc(-c2nnc(SCc3ccccc3)o2)cc1,> 26
2,CS(=O)(=O)c1ccccc1CSc1nnc(-c2ccccc2)o1,> 26
3,c1ccc(CSc2ncc(-c3ccccc3)o2)cc1,> 26
4,CS(=O)(=O)c1cccc(-c2nnc(SCc3ccccc3)o2)c1,> 26
5,Fc1ccc(CSc2nnc(-c3ccccc3)o2)cc1 [drawing 136],> 26
6,c1ccc(CSc2nnc(-c3ccc(-c4ccccc4)cc3)o2)cc1,> 26
7,c1ccc(CNc2nnc(-c3ccccc3)o2)cc1,> 26
8,c1ccc(CSc2nnc(-c3cnco3)o2)cc1,> 26
9,Cc1ccccc1-c1nnc(SCc2ccccc2)o1,> 26
10,Clc1cccc(-c2nnc(SCc3ccccc3)o2)c1,> 26
11,COc1ccc(-c2nnc(SCc3ccccc3)o2)cc1,> 26
12,Clc1ccc(CSc2nnc(-c3ccccc3)o2)cc1,> 26
13,FC(F)(F)c1ccc(CSc2nnc(-c3ccccc3)o2)cc1,> 26
14,FC(F)(F)Oc1ccc(CSc2nnc(-c3ccccc3)o2)cc1,> 26
15,FC(F)(F)Oc1ccc(-c2nnc(SCc3ccccc3)o2)cc1,> 26
16,CS(=O)(=O)c1ccc(CSc2nnc(-c3ccccc3)o2)cc1,> 26
17,c1ccc(-c2nnc(SCCN3CCCC3)o2)cc1,> 26
18,COc1ccccc1CSc1nnc(-c2ccccc2)o1,> 26
19,N#Cc1cccc(CSc2nnc(-c3ccccc3)o2)c1,> 26
20,FC(F)(F)CNCCSc1nnc(-c2ccccc2)o1,> 26
21,N#Cc1cccc(-c2nnc(SCc3ccccc3)o2)c1,> 26
22,c1ccc(CSc2nnc(-c3cc4ccccc4o3)o2)cc1,> 26
23,COc1ccc(CSc2nnc(-c3ccccc3)o2)cc1,> 26
24,c1ccc(COc2nnc(-c3ccccc3)o2)cc1,> 26

# System: not listed separately
# Test: Cytotoxicity against HepG2
# Type: cell-based
# Details: human, HepG2 cells, 26.0 uM highest concentration measured
row,SMILES,IC50 [µM]
1,CS(=O)(=O)c1ccc(-c2nnc(SCc3ccccc3)o2)cc1,> 26
2,CS(=O)(=O)c1ccccc1CSc1nnc(-c2ccccc2)o1,> 26
3,c1ccc(CSc2ncc(-c3ccccc3)o2)cc1,> 26
4,CS(=O)(=O)c1cccc(-c2nnc(SCc3ccccc3)o2)c1,> 26
5,Fc1ccc(CSc2nnc(-c3ccccc3)o2)cc1 [drawing 136],> 26
6,c1ccc(CSc2nnc(-c3ccc(-c4ccccc4)cc3)o2)cc1,> 26
7,c1ccc(CNc2nnc(-c3ccccc3)o2)cc1,> 26
8,c1ccc(CSc2nnc(-c3cnco3)o2)cc1,> 26
9,Cc1ccccc1-c1nnc(SCc2ccccc2)o1,> 26
10,Clc1cccc(-c2nnc(SCc3ccccc3)o2)c1,> 26
11,COc1ccc(-c2nnc(SCc3ccccc3)o2)cc1,> 26
12,Clc1ccc(CSc2nnc(-c3ccccc3)o2)cc1,> 26
13,FC(F)(F)c1ccc(CSc2nnc(-c3ccccc3)o2)cc1,> 26
14,FC(F)(F)Oc1ccc(CSc2nnc(-c3ccccc3)o2)cc1,> 26
15,FC(F)(F)Oc1ccc(-c2nnc(SCc3ccccc3)o2)cc1,> 26
16,CS(=O)(=O)c1ccc(CSc2nnc(-c3ccccc3)o2)cc1,> 26
17,c1ccc(-c2nnc(SCCN3CCCC3)o2)cc1,> 26
18,COc1ccccc1CSc1nnc(-c2ccccc2)o1,> 26
19,N#Cc1cccc(CSc2nnc(-c3ccccc3)o2)c1,> 26
20,FC(F)(F)CNCCSc1nnc(-c2ccccc2)o1,> 26
21,N#Cc1cccc(-c2nnc(SCc3ccccc3)o2)c1,> 26
22,c1ccc(CSc2nnc(-c3cc4ccccc4o3)o2)cc1,> 26
23,COc1ccc(CSc2nnc(-c3ccccc3)o2)cc1,> 26
24,c1ccc(COc2nnc(-c3ccccc3)o2)cc1,> 26

# System: not listed separately
# Test: Cytotoxicity against HeLa
# Type: cell-based
# Details: human, HeLa cells, 26.0 uM highest concentration measured
row,SMILES,IC50 [µM]
1,CS(=O)(=O)c1ccc(-c2nnc(SCc3ccccc3)o2)cc1,> 26
2,CS(=O)(=O)c1ccccc1CSc1nnc(-c2ccccc2)o1,> 26
3,c1ccc(CSc2ncc(-c3ccccc3)o2)cc1,> 26
4,CS(=O)(=O)c1cccc(-c2nnc(SCc3ccccc3)o2)c1,> 26
5,Fc1ccc(CSc2nnc(-c3ccccc3)o2)cc1 [drawing 136],> 26
6,c1ccc(CSc2nnc(-c3ccc(-c4ccccc4)cc3)o2)cc1,> 26
7,c1ccc(CNc2nnc(-c3ccccc3)o2)cc1,> 26
8,c1ccc(CSc2nnc(-c3cnco3)o2)cc1,> 26
9,Cc1ccccc1-c1nnc(SCc2ccccc2)o1,> 26
10,Clc1cccc(-c2nnc(SCc3ccccc3)o2)c1,> 26
11,COc1ccc(-c2nnc(SCc3ccccc3)o2)cc1,> 26
12,Clc1ccc(CSc2nnc(-c3ccccc3)o2)cc1,> 26
13,FC(F)(F)c1ccc(CSc2nnc(-c3ccccc3)o2)cc1,> 26
14,FC(F)(F)Oc1ccc(CSc2nnc(-c3ccccc3)o2)cc1,> 26
15,FC(F)(F)Oc1ccc(-c2nnc(SCc3ccccc3)o2)cc1,> 26
16,CS(=O)(=O)c1ccc(CSc2nnc(-c3ccccc3)o2)cc1,> 26
17,c1ccc(-c2nnc(SCCN3CCCC3)o2)cc1,> 26
18,COc1ccccc1CSc1nnc(-c2ccccc2)o1,> 26
19,N#Cc1cccc(CSc2nnc(-c3ccccc3)o2)c1,> 26
20,FC(F)(F)CNCCSc1nnc(-c2ccccc2)o1,> 26
21,N#Cc1cccc(-c2nnc(SCc3ccccc3)o2)c1,> 26
22,c1ccc(CSc2nnc(-c3cc4ccccc4o3)o2)cc1,> 26
23,COc1ccc(CSc2nnc(-c3ccccc3)o2)cc1,> 26
24,c1ccc(COc2nnc(-c3ccccc3)o2)cc1,> 26

# Reference: patent US10301294B2, “Compounds for the treatment of tuberculosis” (priority 2013, dated 2019)
